Data taken from PubChem BioAssay AID623928 (NMMLSC, 2012).
Calls of active or inactive are those of the source.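 How the source made its calls: active means liver cell toxicity, with the dose killing half the cells under 10 micromolar; inactive means the rest.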

Tested on: Fa2N-4 hepatocyte viability, ATP luminescence, 24 h
Assay: Fa2N-4 hepatocyte viability loss – Fa2N-4 cells, cytotoxicity control for GPR30 and estrogen receptor ligands, late-stage follow-up (AID 623928)

For `CC(=O)c1ccc2c(c1)[C@@H]1C=CC[C@@H]1[C@H](c1cc3c(cc1Br)OCO3)N2`, the LC50 was > 50 µM (inactive).
